Measured values reported in ChEMBL document CHEMBL1143406 (Antimicrob Agents Chemother, 2007).

What was measured:
Type in all cases: ADME, organism-based
[1] = Cmax in HIV-negative human at 600 mg, po administered every 24 hrs coadministered with 400 mg of atazanavir every 12 hrs; design: dose 600 mg, route oral; conditions: in vivo
[2] = Apparent oral clearance in HIV-negative human at 600 mg, po administered every 24 hrs coadministered with 300 mg of atazanavir every 12 hrs; conditions: in vivo
[3] = AUC (24 hrs) in HIV-negative human at 600 mg, po administered every 24 hrs coadministered with 400 mg of atazanavir every 12 hrs; design: time < 24 hr, dose 600 mg, route oral; conditions: plasma
[4] = system: Homo sapiens; experiment: Terminal apparent distribution volume in HIV-negative human at 600 mg, po administered every 24 hrs coadministered with 300 mg of atazanavir every 12 hrs; conditions: in vivo
[5] = Half life in HIV-negative human at 600 mg, po administered every 24 hrs coadministered with 300 mg of atazanavir every 12 hrs; conditions: in vivo
[6] = Tmax in HIV-negative human at 600 mg, po administered every 24 hrs coadministered with 400 mg of atazanavir every 12 hrs; conditions: in vivo
[7] = Tmax in HIV-negative human at 600 mg, po administered every 24 hrs coadministered with 300 mg of atazanavir every 12 hrs; conditions: in vivo
[8] = system: Homo sapiens; experiment: Terminal apparent distribution volume in HIV-negative human at 600 mg, po administered every 24 hrs coadministered with 400 mg of atazanavir every 12 hrs; conditions: in vivo
[9] = Half life in HIV-negative human at 600 mg, po administered every 24 hrs coadministered with 400 mg of atazanavir every 12 hrs; conditions: in vivo
[10] = Apparent oral clearance in HIV-negative human at 600 mg, po administered every 24 hrs coadministered with 400 mg of atazanavir every 12 hrs; conditions: in vivo
[11] = AUC (24 hrs) in HIV-negative human at 600 mg, po administered every 24 hrs coadministered with 300 mg of atazanavir every 12 hrs; design: dose 600 mg, time < 24 hr, route oral; conditions: plasma
[12] = Cmax in HIV-negative human at 600 mg, po administered every 24 hrs coadministered with 300 mg of atazanavir every 12 hrs; design: dose 600 mg, route oral; conditions: in vivo

CO[C@H]1/C=C/O[C@@]2(C)Oc3c(C)c(O)c4c(O)c(c(/C=N/N5CCN(C)CC5)c(O)c4c3C2=O)NC(=O)/C(C)=C\C=C\[C@H](C)[C@H](O)[C@@H](C)[C@@H](O)[C@@H](C)[C@H](O)[C@@H]1C
Cmax [1]: 1710 ng/mL | CL/F [2]: 1490 mL/min | AUC at 24 h [3]: 9400 ng·h/mL | Vbeta [4]: 200 L | half-life [5]: 1.6 h | Tmax [6]: 3.7 h | Tmax [7]: 3.2 h | Vbeta [8]: 159 L | half-life [9]: 1.5 h | CL/F [10]: 1260 mL/min | AUC at 24 h [11]: 8300 ng·h/mL | Cmax [12]: 1650 ng/mL
